What was measured:
hMATE1 = target: T1, hMATE1 (Homo sapiens, UniProt Q96FL8); settings: reported values; cited from earlier work
T1 sequence (Q96FL8 1-570): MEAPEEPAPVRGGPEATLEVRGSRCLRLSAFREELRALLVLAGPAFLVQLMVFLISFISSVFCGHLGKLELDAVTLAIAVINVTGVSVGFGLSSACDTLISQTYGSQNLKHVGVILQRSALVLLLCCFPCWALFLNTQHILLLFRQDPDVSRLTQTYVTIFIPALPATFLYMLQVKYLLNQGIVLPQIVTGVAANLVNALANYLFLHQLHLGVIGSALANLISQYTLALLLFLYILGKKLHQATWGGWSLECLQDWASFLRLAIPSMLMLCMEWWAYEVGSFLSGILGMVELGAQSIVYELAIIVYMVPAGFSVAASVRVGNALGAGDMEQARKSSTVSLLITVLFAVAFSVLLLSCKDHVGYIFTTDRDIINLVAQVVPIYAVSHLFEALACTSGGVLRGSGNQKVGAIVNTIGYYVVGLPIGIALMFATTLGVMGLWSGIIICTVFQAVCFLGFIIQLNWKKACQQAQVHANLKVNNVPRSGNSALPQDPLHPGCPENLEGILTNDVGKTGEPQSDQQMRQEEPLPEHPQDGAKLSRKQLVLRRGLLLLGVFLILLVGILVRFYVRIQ

HCT-116 cells = test: Uptake of compound 1 after epigenetic drugs, confocal fluorescence microscopy; type: cell-based, human; settings: HCT-116, pre-screen of epigenetic drugs, alone or in combination
Experimental: We first pre-screened several epigenetic drugs in cultured HCT-116 cells in a multi-well plate format for their ability to increase the uptake of compound 1 using confocal fluorescence microscopy. […] These compounds were then tested again at escalating doses (2.5-20 mM).
Confocal fluorescence microscopy. Cells were seeded and allowed to attach overnight before any treatment. After cells were treated depend on purposes of different experiments, media was removed and dishes were rinsed 3 times with 1 mL of pre-warmed PBS buffer. Cells were then used fixed with 4% formaldehyde in PBS buffer for 15 minutes. Dishes were then washed an additional 3 times with 1 mL of pre-warmed PBS before imaging. Images were collected using a LSM 880 Confocal Microscope (Carl Zeiss Microscopy) using a 63X/1.4NA Plan-Apochromatic objective. The fluorescence of acridine was excited with a 405 nm (15 mW) laser at 4.4% and collected between 405-481 nm. To allow comparative fluorescence intensity analysis, excitation power, pinhole settings, PMT gain, and offset values across and within imaging sessions for each respective channel were not changed. The intensity of acridine-related fluorescence in treated cells was estimated by drawing a region of interest around each cell. A total of more than 100 individual cells across 3 views of 2 independent experiments were analyzed in this fashion. […]

SMILES	Ki (hMATE1) [nM]	uptake of compound 1 (acridine-associated blue fluorescence) (HCT-116 cells)
CCc1nc(N)nc(N)c1-c1ccc(Cl)cc1 [pyrimethamine]	77 to 93	–
CCN(c1cc(-c2ccc(CN3CCOCC3)cc2)cc(C(=O)NCc2c(C)cc(C)[nH]c2=O)c1C)C1CCOCC1 [EPZ-6438]	–	enhanced uptake of compound 1
CS(=O)(=O)c1ccc(-c2cnc(NCc3ccco3)n3cnnc23)cc1 [EED226]	–	enhanced uptake of compound 1

— US12023341B2, “Platinum-acridine compounds and methods of treating cancers” (Wake Forest University, priority 2020, dated 2024)
